# Legend:
# Nucleic Acid = assay: Delta Tm (thermal denaturation) in sonicated calf thymus DNA; type: nucleic-acid assay; set-up: unit not given here; conditions: Bos taurus
# [1] = Delta Tm (thermal denaturation) in sonicated poly(dA).poly(dT) homopolymer
# Pneumocystis carinii = assay: Compound was tested for anti-P. carinii activity in vitro.; type: functional
SMILES,ΔTm (Nucleic Acid),ΔTm [1],Activity (Pneumocystis carinii)
N=C(N)c1ccc(OCCCCOc2ccc(C(=N)N)cc2)cc1,8.3,20.4,39 µM
N=C(N)c1ccc(OCCCCCOc2ccc(C(=N)N)cc2)cc1 [PENTAMIDINE],10,22.9,27 µM
N=C(N)c1ccc(OC[C@@H](O)[C@@H](O)COc2ccc(C(=N)N)cc2)cc1,–,–,78 µM
N=C(N)c1ccc(OC/C=C\COc2ccc(C(=N)N)cc2)cc1,11,31.5,9 µM
COc1cc(Cc2cnc(N)nc2N)cc(OC)c1OC.Cc1cc(NS(=O)(=O)c2ccc(N)cc2)no1 [CO-TRIMOXAZOLE],–,–,17 µM

# Further lines, with some results ahead:
ΔTm (Nucleic Acid),ΔTm [1],SMILES,Activity (Pneumocystis carinii)
9.3,28.9,C(=C/COc1ccc(C2=NCCN2)cc1)/COc1ccc(C2=NCCN2)cc1,25 µM
7.9,20.8,C(=C\COc1ccc(C2=NCCN2)cc1)/COc1ccc(C2=NCCN2)cc1,42 µM
7.7,23.3,N=C(N)c1ccc(OC/C=C/COc2ccc(C(=N)N)cc2)cc1,19 µM
